Test system: HCT116 colorectal cancer cells
Assay: Cisplatin sensitization assay (96 h MTS cell viability);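 note: compound concentration needed to lower the IC50 of Cisplatin alone by a set fold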
Format: cell-based
Conditions: Cisplatin sensitization value
Summary of the method: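 The MTS viability read, after 1 h with reagent, followed 96 h of co-treatment at 37° C. in 5% CO2. Both compound and cisplatin were titrated 2-fold from a 10 μM top final concentration in a complete concentration matrix on HCT116 cells. Scores +++/++/+ reflect cisplatin sensitization value ranges.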

| Structure (SMILES) | Cisplatin Sensitization Assay |
| --- | --- |
| CN1CCN(C(=O)C2(C#N)CCN(c3c(F)cncc3NC(=O)c3c(N)nn4cc(F)cnc34)CC2)CC1 [I-G-25, 2-amino-N-(4-(4-cyano-4-(4-methylpiperazine-1-carbonyl)piperidin-1-yl)-5-fluoropyridin-3-yl)-6-fluoropyrazolo[1,5-a]pyrimidine-3-carboxamide] | +++ (Compounds with a Cisplatin sensitization value of <0.02 μM are marked with “+++.”) |
| CN(C)CCCNC(=O)C1CCN(c2c(F)cncc2NC(=O)c2c(N)nn3cc(F)cnc23)CC1 [I-G-26, 2-amino-N-(4-(4-((3-(dimethylamino)propyl)carbamoyl)piperidin-1-yl)-5-fluoropyridin-3-yl)-6-fluoropyrazolo[1,5-a]pyrimidine-3-carboxamide] | ++ (Compounds with a Cisplatin sensitization value >0.02 μM but <0.2 μM are marked with “++.”) |
| CC1(C)CN(C(=O)C2CCN(c3c(F)cncc3NC(=O)c3c(N)nn4cc(F)cnc34)CC2)CCN1 [I-G-27, 2-amino-N-(4-(4-(3,3-dimethylpiperazine-1-carbonyl)piperidin-1-yl)-5-fluoropyridin-3-yl)-6-fluoropyrazolo[1,5-a]pyrimidine-3-carboxamide] | ++ (Compounds with a Cisplatin sensitization value >0.02 μM but <0.2 μM are marked with “++.”) |
| Nc1nn2cc(F)cnc2c1C(=O)Nc1cncc(F)c1N1CCC(C(=O)N2CCNC3(CC3)C2)CC1 [I-G-28, N-(4-(4-(4,7-diazaspiro[2.5]octane-7-carbonyl)piperidin-1-yl)-5-fluoropyridin-3-yl)-2-amino-6-fluoropyrazolo[1,5-a]pyrimidine-3-carboxamide] | +++ (Compounds with a Cisplatin sensitization value of <0.02 μM are marked with “+++.”) |
| CN(C)C(=O)C1CCN(c2c(F)cncc2NC(=O)c2c(N)nn3cc(F)cnc23)CC1 [I-G-29, 2-amino-N-(4-(4-(dimethylcarbamoyl)piperidin-1-yl)-5-fluoropyridin-3-yl)-6-fluoropyrazolo[1,5-a]pyrimidine-3-carboxamide] | +++ (Compounds with a Cisplatin sensitization value of <0.02 μM are marked with “+++.”) |
| CN(C)CCNC(=O)C1CCN(c2c(F)cncc2NC(=O)c2c(N)nn3cc(F)cnc23)CC1 [I-G-30, 2-amino-N-(4-(4-((2-(dimethylamino)ethyl)carbamoyl)piperidin-1-yl)-5-fluoropyridin-3-yl)-6-fluoropyrazolo[1,5-a]pyrimidine-3-carboxamide] | +++ (Compounds with a Cisplatin sensitization value of <0.02 μM are marked with “+++.”) |
| CN(C)CCN(C)C(=O)C1CCN(c2c(F)cncc2NC(=O)c2c(N)nn3cc(F)cnc23)CC1 [I-G-31, 2-amino-N-(4-(4-((2-(dimethylamino)ethyl)(methyl)carbamoyl)piperidin-1-yl)-5-fluoropyridin-3-yl)-6-fluoropyrazolo[1,5-a]pyrimidine-3-carboxamide] | +++ (Compounds with a Cisplatin sensitization value of <0.02 μM are marked with “+++.”) |
| Nc1nn2cc(F)cnc2c1C(=O)Nc1cncc(F)c1N1CCC(C(=O)N2CCN(C3COC3)CC2)CC1 [I-G-32, 2-amino-6-fluoro-N-[5-fluoro-4-[4-[4-(oxetan-3-yl)piperazine-1-carbonyl]-1-piperidyl]-3-pyridyl]pyrazolo[1,5-a]pyrimidine-3-carboxamide] | +++ (Compounds with a Cisplatin sensitization value of <0.02 μM are marked with “+++.”) |
| CNC(=O)C1CCN(c2c(F)cncc2NC(=O)c2c(N)nn3cc(F)cnc23)CC1 [I-G-33, 2-amino-6-fluoro-N-(5-fluoro-4-(4-(methylcarbamoyl)piperidin-1-yl)pyridin-3-yl)pyrazolo[1,5-a]pyrimidine-3-carboxamide] | +++ (Compounds with a Cisplatin sensitization value of <0.02 μM are marked with “+++.”) |
| CNC1CN(C(=O)C2CCN(c3c(F)cncc3NC(=O)c3c(N)nn4cc(F)cnc34)CC2)C1 [I-G-34, 2-amino-6-fluoro-N-(5-fluoro-4-(4-(3-(methylamino)azetidine-1-carbonyl)piperidin-1-yl)pyridin-3-yl)pyrazolo[1,5-a]pyrimidine-3-carboxamide] | +++ (Compounds with a Cisplatin sensitization value of <0.02 μM are marked with “+++.”) |
| Nc1nn2cc(F)cnc2c1C(=O)Nc1cncc(F)c1N1CCC(C(=O)N2CCN(C3CCC3)CC2)CC1 [I-G-35, 2-amino-N-(4-(4-(4-cyclobutylpiperazine-1-carbonyl)piperidin-1-yl)-5-fluoropyridin-3-yl)-6-fluoropyrazolo[1,5-a]pyrimidine-3-carboxamide] | +++ (Compounds with a Cisplatin sensitization value of <0.02 μM are marked with “+++.”) |
| Nc1nn2cc(F)cnc2c1C(=O)Nc1cncc(F)c1N1CCC(C(=O)N2CCOCC2)CC1 [I-G-36, 2-amino-6-fluoro-N-(5-fluoro-4-(4-(morpholine-4-carbonyl)piperidin-1-yl)pyridin-3-yl)pyrazolo[1,5-a]pyrimidine-3-carboxamide] | +++ (Compounds with a Cisplatin sensitization value of <0.02 μM are marked with “+++.”) |
| Nc1nn2cc(F)cnc2c1C(=O)Nc1cncc(F)c1N1CCC(C(=O)NC2COC2)CC1 [I-G-37, 2-amino-6-fluoro-N-(5-fluoro-4-(4-(oxetan-3-ylcarbamoyl)piperidin-1-yl)pyridin-3-yl)pyrazolo[1,5-a]pyrimidine-3-carboxamide] | ++ (Compounds with a Cisplatin sensitization value >0.02 μM but <0.2 μM are marked with “++.”) |
| CN1CCN(C(=O)C2CCN(c3c(F)cncc3NC(=O)c3c(N)nn4cc(F)cnc34)CC2)CC12CC2 [I-G-38, 2-amino-6-fluoro-N-(5-fluoro-4-(4-(4-methyl-4,7-diazaspiro[2.5]octane-7-carbonyl)piperidin-1-yl)pyridin-3-yl)pyrazolo[1,5-a]pyrimidine-3-carboxamide] | +++ (Compounds with a Cisplatin sensitization value of <0.02 μM are marked with “+++.”) |
| COCCN(C)C(=O)C1CCN(c2c(F)cncc2NC(=O)c2c(N)nn3cc(F)cnc23)CC1 [I-G-40, 2-amino-6-fluoro-N-(5-fluoro-4-(4-((2-methoxyethyl)(methyl)carbamoyl)piperidin-1-yl)pyridin-3-yl)pyrazolo[1,5-a]pyrimidine-3-carboxamide] | +++ (Compounds with a Cisplatin sensitization value of <0.02 μM are marked with “+++.”) |
| Nc1nn2cc(F)cnc2c1C(=O)Nc1cncc(F)c1N1CCC(C(=O)N2CC(O)C2)CC1 [I-G-41, 2-amino-6-fluoro-N-(5-fluoro-4-(4-(3-hydroxyazetidine-1-carbonyl)piperidin-1-yl)pyridin-3-yl)pyrazolo[1,5-a]pyrimidine-3-carboxamide] | +++ (Compounds with a Cisplatin sensitization value of <0.02 μM are marked with “+++.”) |
| Nc1nn2cc(F)cnc2c1C(=O)Nc1cncc(F)c1N1CCC(C(=O)NCCN2CCC2)CC1 [I-G-42, 2-amino-N-(4-(4-((2-(azetidin-1-yl)ethyl)carbamoyl)piperidin-1-yl)-5-fluoropyridin-3-yl)-6-fluoropyrazolo[1,5-a]pyrimidine-3-carboxamide] | +++ (Compounds with a Cisplatin sensitization value of <0.02 μM are marked with “+++.”) |
| Nc1nn2cc(F)cnc2c1C(=O)Nc1cncc(F)c1N1CCC(C(=O)N2CC(N3CCCC3)C2)CC1 [I-G-43, 2-amino-6-fluoro-N-(5-fluoro-4-(4-(3-(pyrrolidin-1-yl)azetidine-1-carbonyl)piperidin-1-yl)pyridin-3-yl)pyrazolo[1,5-a]pyrimidine-3-carboxamide] | +++ (Compounds with a Cisplatin sensitization value of <0.02 μM are marked with “+++.”) |
| Nc1nn2cc(F)cnc2c1C(=O)Nc1cncc(F)c1N1CCC(C(=O)N2CC3CCC(C2)N3)CC1 [I-G-44, N-(4-(4-(3,8-diazabicyclo[3.2.1]octane-3-carbonyl)piperidin-1-yl)-5-fluoropyridin-3-yl)-2-amino-6-fluoropyrazolo[1,5-a]pyrimidine-3-carboxamide] | +++ (Compounds with a Cisplatin sensitization value of <0.02 μM are marked with “+++.”) |
| C[C@@H]1CN(C(=O)C2CCN(c3c(F)cncc3NC(=O)c3c(N)nn4cc(F)cnc34)CC2)CCN1 [I-G-45, (R)-2-amino-6-fluoro-N-(5-fluoro-4-(4-(3-methylpiperazine-1-carbonyl)piperidin-1-yl)pyridin-3-yl)pyrazolo[1,5-a]pyrimidine-3-carboxamide] | +++ (Compounds with a Cisplatin sensitization value of <0.02 μM are marked with “+++.”) |
| Nc1nn2cc(F)cnc2c1C(=O)Nc1cncc(F)c1N1CCC(C(=O)N2CCN3CCC2C3)CC1 (stereo not drawn) [I-G-46, N-(4-(4-(1,4-diazabicyclo[3.2.1]octane-4-carbonyl)piperidin-1-yl)-5-fluoropyridin-3-yl)-2-amino-6-fluoropyrazolo[1,5-a]pyrimidine-3-carboxamide] | +++ (Compounds with a Cisplatin sensitization value of <0.02 μM are marked with “+++.”) |
| Nc1nn2cc(F)cnc2c1C(=O)Nc1cncc(Cl)c1N1CCC(C(=O)N2CCNCC2)CC1 [I-G-48, 2-amino-N-(5-chloro-4-(4-(piperazine-1-carbonyl)piperidin-1-yl)pyridin-3-yl)-6-fluoropyrazolo[1,5-a]pyrimidine-3-carboxamide] | +++ (Compounds with a Cisplatin sensitization value of <0.02 μM are marked with “+++.”) |
| Nc1nn2cc(F)cnc2c1C(=O)Nc1cncc(F)c1N1CCC(C(=O)N2CC(N3CCC3)C2)CC1 [I-G-49, N-(4-(4-([1,3′-biazetidine]-1′-carbonyl)piperidin-1-yl)-5-fluoropyridin-3-yl)-2-amino-6-fluoropyrazolo[1,5-a]pyrimidine-3-carboxamide] | +++ (Compounds with a Cisplatin sensitization value of <0.02 μM are marked with “+++.”) |
| C[C@@H]1CN(C(=O)C2CCN(c3c(F)cncc3NC(=O)c3c(N)nn4cc(F)cnc34)CC2)CCN1C [I-G-50, (R)-2-amino-N-(4-(4-(3,4-dimethylpiperazine-1-carbonyl)piperidin-1-yl)-5-fluoropyridin-3-yl)-6-fluoropyrazolo[1,5-a]pyrimidine-3-carboxamide] | +++ (Compounds with a Cisplatin sensitization value of <0.02 μM are marked with “+++.”) |
